US12378186B2, “Inhibitors of meprin α and β” (VIVORYON THERAPEUTICS N.V., priority 2016, dated 2025)
pIC50, pKi: −log10 of the molar value. Where two headings read alike, the source gives them in different places.

Columns and labels:
hMeprin β = molecular target: T1, hMeprin β (Homo sapiens, UniProt Q16820); assay: Enzymatic assay, cleavage of internally quenched peptide substrate, hMeprin β; assay type: biochemical
T1 sequence (Q16820 62-701): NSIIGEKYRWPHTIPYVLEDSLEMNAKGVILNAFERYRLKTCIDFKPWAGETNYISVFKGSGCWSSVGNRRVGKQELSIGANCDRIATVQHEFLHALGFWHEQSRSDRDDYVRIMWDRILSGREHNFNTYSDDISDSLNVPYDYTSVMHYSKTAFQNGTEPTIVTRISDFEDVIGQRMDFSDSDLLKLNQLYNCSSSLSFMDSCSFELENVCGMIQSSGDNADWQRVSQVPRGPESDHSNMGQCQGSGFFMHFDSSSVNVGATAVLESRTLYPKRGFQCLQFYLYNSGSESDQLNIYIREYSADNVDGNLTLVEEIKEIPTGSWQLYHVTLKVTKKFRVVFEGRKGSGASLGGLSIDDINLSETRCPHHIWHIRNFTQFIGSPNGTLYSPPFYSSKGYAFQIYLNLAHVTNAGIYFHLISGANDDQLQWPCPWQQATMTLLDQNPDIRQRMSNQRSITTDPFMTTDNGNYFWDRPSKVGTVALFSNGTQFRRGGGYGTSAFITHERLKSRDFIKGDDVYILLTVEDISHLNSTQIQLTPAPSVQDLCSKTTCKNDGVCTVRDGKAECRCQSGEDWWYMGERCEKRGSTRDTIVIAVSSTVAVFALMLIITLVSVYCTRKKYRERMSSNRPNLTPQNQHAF
Experimental: (§1) A typical assay of 250 μl total volume measured in black 96 well plates consisted of 100 μl buffer, 50 μl enzyme at a final concentration of 5e-8 M to 5e-9 M, 50 μl substrate (0.15 to 80 μM, in buffer, 0.5% DMSO) and 50 μl inhibitor solution (in buffer, 1% DMSO). In case of 125 μl assay volume (black 96 half area well plates) all volumes were cut in half. Enzymatic activity of ADAMs was measured in 384 well plates with 60 μl total assay volume consisting of 20 μl inhibitor, 20 μl buffer, 10 μl enzyme and 10 μl substrate.
(§2) Ki values were assessed combining 4 substrate concentrations (5-40 μM) with at least 5 inhibitor concentrations. […] Initial velocities were determined and converted into concentration units applying a standard curve obtained after complete conversion of different substrate concentrations under assay conditions. All measurements were performed using a fluorescence plate reader (FLUOstar OPTIMA, BMG Labtech) at 30° C. The kinetic parameters were determined at least in duplicates on separate days. The excitation/emission wavelength was 340/420 nm. The kinetic data was evaluated using GraFit software (version 7.0.3, Erithacus Software).
(§3) The following compounds according to the present invention were synthesized using the above general procedures. IC50 refers to the average IC50 values measured as described above, SD (IC50) refers to the standard deviation of the average IC50 values, Ki refers to the average K; values measured as described above, and SD (Ki) to the standard deviation of the average Ki values.

hMeprin α = molecular target: T2, hMeprin α (Homo sapiens, UniProt Q16819); assay: biochemical; assay type: biochemical
T2 sequence (Q16819 66-746): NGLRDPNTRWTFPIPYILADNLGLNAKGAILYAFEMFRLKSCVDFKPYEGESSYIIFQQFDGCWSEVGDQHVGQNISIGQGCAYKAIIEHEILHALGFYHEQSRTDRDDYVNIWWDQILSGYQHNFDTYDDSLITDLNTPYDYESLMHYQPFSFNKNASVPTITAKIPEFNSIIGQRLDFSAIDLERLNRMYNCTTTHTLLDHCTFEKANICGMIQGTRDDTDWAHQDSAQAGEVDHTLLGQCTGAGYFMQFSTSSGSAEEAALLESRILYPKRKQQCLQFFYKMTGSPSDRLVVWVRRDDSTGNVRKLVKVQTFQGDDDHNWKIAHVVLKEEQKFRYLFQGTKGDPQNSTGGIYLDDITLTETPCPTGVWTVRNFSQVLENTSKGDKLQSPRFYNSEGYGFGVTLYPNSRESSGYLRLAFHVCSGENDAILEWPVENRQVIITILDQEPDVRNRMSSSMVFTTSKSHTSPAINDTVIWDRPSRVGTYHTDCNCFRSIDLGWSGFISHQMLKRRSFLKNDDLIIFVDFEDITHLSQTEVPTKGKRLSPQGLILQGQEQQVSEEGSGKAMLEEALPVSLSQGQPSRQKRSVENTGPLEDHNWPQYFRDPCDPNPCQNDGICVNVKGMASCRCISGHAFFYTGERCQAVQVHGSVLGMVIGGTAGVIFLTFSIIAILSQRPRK
Experimental: as §1, §2, §3

[1] = average IC50, 10 μM substrate, 30° C., 40 mM Tris pH 8.0, read-out: Meprin Beta IC50
[2] = average IC50, 10 μM substrate, 30° C., 40 mM HEPES pH 7.4, read-out: Meprin Alpha IC50
[3] = average Ki, 4 substrate concentrations (5-40 μM), 30° C., 40 mM HEPES pH 7.4, read-out: Meprin Alpha Ki

Row | SMILES | pIC50 (hMeprin α; [2]) | pKi (hMeprin β) | pKi (hMeprin α; [3]) | pIC50 (hMeprin β) | further results
1 | O=C(O)c1cccc(CN[C@@H](C(=O)NO)c2ccccc2)c1 [Example 36, 3-[[[(1R)-2-(Hydroxyamino)-2-oxo-1-phenyl-ethyl]amino]methyl]benzoic acid] | 4.66 |  |  |  | pIC50 (hMeprin β; [1]): 4.93
2 | O=C(CN(Cc1cc(F)c(O)c(F)c1)Cc1cc(F)c(O)c(F)c1)NO [Example 48, 2-[bis[(3,5-difluoro-4-hydroxy-phenyl)methyl]-amino]ethanehydroxamic acid] | 5.88 | 6.93 | 6.58 |  | pIC50 (hMeprin β; [1]): 6.57
3 | COc1cccc(CN(CC(=O)NO)Cc2cccc(C(=O)O)c2)c1 [Example 14, 3-[[[2-(Hydroxyamino)-2-oxo-ethyl]-[(3-methoxyphenyl)methyl]amino]-methyl]benzoic acid] |  | 6.54 |  |  | pIC50 (hMeprin β; [1]): 6.25
4 | O=C(CN(Cc1ccc(C(=O)O)cc1)Cc1ccc(C(=O)O)cc1)NO [Example 1, 4-[[(4-Carboxyphenyl)methyl-[2-(hydroxyamino)-2-oxo-ethyl]amino]methyl]benzoic acid] | 4.07 | 6.65 |  | 6.33 | 
5 | CC(C)[C@H](NCc1cccc(C(=O)O)c1)C(=O)NO [Example 29, 3-[[[(1S)-1-(Hydroxycarbamoyl)-2-methyl-propyl]amino]methyl]benzoic acid] | 4.35 |  |  |  | pIC50 (hMeprin β; [1]): 4.80
6 | Cc1ccc(CN(CC(=O)NO)Cc2cccc(C(=O)O)c2)cc1 [Example 18, 3-[[[2-(Hydroxyamino)-2-oxo-ethyl]-(p-tolyl-methyl)amino]methyl]benzoic acid] | 5.33 | 6.77 | 5.70 | 6.44 | 
7 | COc1c(F)ccc(CN(CC(=O)NO)Cc2ccc(F)c(OC)c2F)c1F [Example 58, 2-[bis[(2,4-difluoro-3-methoxy-phenyl)methyl]-amino]ethanehydroxamic acid] | 5.55 |  | 6.14 |  | pIC50 (hMeprin β; [1]): 4.74
8 | O=C(CCN(Cc1ccc2c(c1)OCO2)Cc1ccc2c(c1)OCO2)NO [Example 74, 3-[bis(1,3-benzodioxol-5-ylmethyl)amino]-propanehydroxamic acid] | 6.82 | 5.94 | 7.28 |  | 
9 | CCOC(=O)c1cccc(CN(CC(=O)NO)Cc2cccc(C(=O)O)c2)c1 [Example 59, 3-[[(3-ethoxycarbonylphenyl)methyl-[2-(hydroxyamino)-2-oxo-ethyl]amino]methyl]benzoic acid] | 5.38 | 6.57 | 5.83 | 6.08 | 
10 | O=C(CN(Cc1cccnc1)Cc1cccnc1)NO [Example 73, 2-[bis(3-pyridylmethyl)amino]ethanehydroxamic acid] | 5.71 |  | 6.20 | 4.66 | 
11 | O=C(O)c1cccc(CN2CCCC2C(=O)NO)c1 (stereo in doubt) [Example 12, 3-[[(2R)-2-(Hydroxycarbamoyl)pyrrolidin-1-yl]methyl]benzoic acid] |  |  |  | 4.50 | 
12 | O=C(CN(Cc1ccccc1)Cc1ccccc1)NO [Example 67, 2-(dibenzylamino) ethanehydroxamic acid] | 5.10 |  | 5.51 |  | 
13 | COc1ccc(CN(CC(=O)NO)Cc2ccc(F)cc2)cc1 [Example 25, 2-[(4-fluorophenyl)methyl-[(4-methoxyphenyl)-methyl]amino]ethanehydroxamic acid] | 5.38 |  |  | 4.09 | 
14 | COc1cc(CN(CC(=O)NO)Cc2cc(OC)c(OC)c(OC)c2)cc(OC)c1OC [Example 61, 2-[bis[(3,4,5-trimethoxyphenyl)methyl]-amino]-ethanehydroxamic acid] | 5.27 |  | 5.93 | 4.70 | 
15 | CCCOc1ccc(CN(CC(=O)NO)Cc2cccc(C(=O)O)c2)cc1 [Example 9, 3-[[[2-(Hydroxyamino)-2-oxo-ethyl]-[(4-propoxyphenyl)methyl]amino]-methyl]benzoic acid] |  | 6.06 |  | 5.65 | 
16 | O=C(CN(Cc1ccc(F)cc1)Cc1cccc(C(=O)O)c1)NO [Example 21, 3-[[(4-Fluorophenyl)methyl-[2-(hydroxyamino)-2-oxo-ethyl]amino]methyl]benzoic acid] |  | 5.77 |  |  | pIC50 (hMeprin β; [1]): 6.75; pIC50 (hMeprin α): 5.38; pKi (hMeprin α): 5.77
17 | COc1c(Cl)ccc(CN(CC(=O)NO)Cc2ccc(Cl)c(OC)c2F)c1F [Example 56, 2-[bis[(4-chloro-2-fluoro-3-methoxy-phenyl)-methyl]amino]ethanehydroxamic acid] | 5.30 |  | 6.00 |  | 
18 | COc1ccc(CN(CC(=O)NO)Cc2ccc(OC)cc2)cc1 [Example 15, 2-[bis[(4-Methoxyphenyl)methyl]amino]ethane-hydroxamic acid] |  |  |  | 4.50 | 
19 | COc1cc(CN(CCC(=O)NO)Cc2cc(OC)c(OC)c(OC)c2)cc(OC)c1OC [Example 66, 3-[bis[(3,4,5-trimethoxyphenyl)methyl]amino]-propanehydroxamic acid] | 4.70 |  |  | 4.05 | 
20 | O=C(CNCc1cccc(C(=O)O)c1)NO [Example 3, 3-[[[2-(Hydroxyamino)-2-oxo-ethyl]amino]-methyl]benzoic acid] |  | 6.74 |  |  | pIC50 (hMeprin β; [1]): 6.42
21 | O=C(O)c1cccc(CN2CCCC2C(=O)NO)c1 (stereo in doubt) [Example 13, 3-[[(2S)-2-(Hydroxycarbamoyl)pyrrolidin-1-yl]methyl]benzoic acid] |  |  |  | 4.39 | 
22 | COc1c(Cl)ccc(CN(CCC(=O)NO)Cc2ccc(Cl)c(OC)c2F)c1F [Example 65, 3-[bis[(4-chloro-2-fluoro-3-methoxy-phenyl)-methyl]amino]propanehydroxamic acid] |  |  | 6.80 |  | 
23 | O=C(CCN(Cc1ccc(Cl)cc1F)Cc1ccc(Cl)cc1F)NO [Example 62, 3-[bis[(4-chloro-2-fluoro-phenyl)methyl]-amino]propanehydroxamic acid] |  |  | 6.77 |  | 
24 | N#Cc1ccc(CN(CC(=O)NO)Cc2ccc(C#N)cc2)cc1 [Example 55, 2-[bis[(4-cyanophenyl)methyl]amino]-ethanehydroxamic acid] | 5.25 |  | 5.80 |  | 
25 | O=C(CN(Cc1ccccc1)Cc1cccc(C(=O)O)c1)NO [Example 17] |  | 6.10 |  |  | 
26 | COc1ccc(CN(CC(=O)NO)Cc2ccccc2C(=O)O)cc1 [Example 16, 2-[[[2-(Hydroxyamino)-2-oxo-ethyl]-[(4-methoxyphenyl)methyl]amino]-methyl]benzoic acid] |  |  |  | 4.64 | 
27 | O=C(CN(Cc1ccc(-c2ccccc2)cc1)Cc1cccc(C(=O)O)c1)NO [Example 8, 3-[[[2-(Hydroxyamino)-2-oxo-ethyl]-[(4-biphenyl)methyl]amino]-methyl]benzoic acid] |  | 5.99 |  | 5.84 | 
28 | COc1cccc(CN(CC(=O)NO)Cc2cccc(OC)c2)c1 [Example 5, 2-[bis[(3-Methoxyphenyl)methyl]amino]-ethanehydroxamic acid] |  | 4.81 |  | 4.59 | 
29 | N#Cc1ccc(CN(CCC(=O)NO)Cc2ccc(C#N)cc2)cc1 [Example 57, 3-[bis[(4-cyanophenyl)methyl]amino]-propanehydroxamic acid] |  |  | 5.92 |  | 
